Test results from BindingDB's records for doi:10.1080/14756360701546595 (University of Zimbabwe, 2008).

Molecular target: T1, Glutathione S-transferase E2 (Anopheles gambiae, UniProt Q9GPL8)
T1 sequence (Q9GPL8 whole entry): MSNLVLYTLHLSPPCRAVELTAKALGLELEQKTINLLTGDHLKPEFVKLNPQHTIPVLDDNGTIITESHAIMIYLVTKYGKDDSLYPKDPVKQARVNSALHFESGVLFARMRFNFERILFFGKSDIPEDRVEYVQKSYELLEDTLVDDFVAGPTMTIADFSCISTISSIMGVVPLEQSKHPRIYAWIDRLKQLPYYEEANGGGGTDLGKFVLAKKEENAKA
Assay: GST Inhibition Assay
Conditions: pH 6.5; 30 °C
Description: A range of natural product were screened for inhibition of AgGSTE2. GST activity was monitored by measuring absorbance at 340 nm with time, using a SpectraMax 340 microplate spectrophotometer equipped with a kinetics mode from Molecular Devices, Sunnyvale, California, USA.

SMILES | IC50
CC(C)=CCCC1(C)C(CC=C(C)C)CC2(CC=C(C)C)C(=O)C(C(=O)c3ccc(O)c(O)c3)C(=O)C1(CC=C(C)C)C2=O (stereo not given) [GGI] | 4.8 µM
O=Cc1occ2c(O)c3c(O)ccc(O)c3c(O)c12 [MR-13/4] | 4.3 µM
COc1cc(O)c(-c2c(C)cc(O)c3c2Cc2cccc(O)c2C3=O)c(O)c1C(C)=O [Name not given] | 3.5 µM

Other lines, results leading:

IC50 | SMILES
1.5 µM | C=Cc1c(OC=O)cc(O)c2c1OC(c1ccc(O)c(O)c1)C(O)C2 (stereo not given) [TRAL-1]
1.4 µM | C=C(CC)C(=O)c1ccc(OCC(=O)O)c(Cl)c1Cl [[2,3-dichloro-4-(2-methylidenebutanoyl)phenoxy]acetic acid]
